Source: patent publication US9353151B2, “HLA-binding peptide, and DNA fragment and recombinant vector coding for said HLA-binding peptide” (NEC Corporation, priority 2005, dated 2016)
No end group written: not given here.

Assays:
[1] = tested on: HLA-A24 molecule (product of the HLA-A*2402 gene); assay: Experiment of binding peptide to HLA-A24 molecule (C1R-A24 cells, flow cytometry); parameters: species or system human; details: for Binding Experiment Data: -log Kd value (Kd in molar concentration), C1R-A24 cells
Procedure: The ability of a peptide to bind to an HLA-A24 molecule, which is a product of the HLA-A*2402 gene, was measured using C1R-A24 cells expressing the HLA-A24 molecule (cells prepared by Professor Masafumi Takiguchi, Kumamoto University being supplied with permission by Assistant Professor Masaki Yasukawa, Ehime University).
C1R-A24 cells were first exposed to acidic conditions at a pH of 3.3 for 30 seconds, thus dissociating and removing a light chain β2m, which is associated with HLA class I molecules in common, and an endogenous peptide originally bound to the HLA-A*2402 molecule. After neutralization, purified β2m was added to C1R-A24 cells, the obtained product was added to serial dilutions of a peptide, and incubated on ice for 4 hours. Staining was carried out using fluorescently labeled monoclonal antibody 17A12, which recognizes association (MHC-pep) of the three members, that is, HLA-A*2402 molecule, the peptide, and β2m, which had reassociated during the incubation.
Subsequently, the MHC-pep count per C1R-A24 cell (proportional to the strength of fluorescence of the above-mentioned fluorescent antibody) was quantitatively measured using an FACScan fluorescence-activated cell sorter (Becton Dickinson Biosciences). A binding dissociation constant Kd value between the HLA-A24 molecule and the peptide was calculated from the average strength of fluorescence per cell by a published method (Udaka et al., Immunogenetics, 51, 816-828, 2000).

[2] = biological target: HLA-A2 molecule (product of the HLA-A*0201 gene) (Homo sapiens, UniProt P04439, D140Y/D185E/D98H/E176V/E277Q/G131W/G231S/I119V/I121R/I166T/I218V/L300P/L318F/N151K/N90K/P208A/P217A/Q86G/Q94H/R138H/R169H/T345S); assay: Experiment of binding peptide to HLA-A2 molecule (JY cells, flow cytometry); details: -log Kd value (Kd in molar concentration)
Procedure: JY cells were first exposed to acidic conditions at a pH of 3.8 for 30 seconds, thus dissociating and removing a light chain β2m and an endogenous peptide, which were noncovalently associated with the HLA-A*0201 molecule. After neutralization, a reassociation experiment was carried out.
The above-mentioned JY cells and the purified β2m were added to stepped dilutions of peptide for which the binding ability would be measured, and incubation was carried out on ice for 4 hours. HLA-A*0201 molecules that had reassociated up to this point were stained using the associating type specific fluorescently-labeled monoclonal antibody BB7.2.
Subsequently, the amount of fluorescence per cell was measured using a flow cytometer and a dissociation constant Kd value in molar concentration was calculated by a published method (Udaka et al., Immunogenetics, 51, 816-828, 2000).

Sequence	binding to a human HLA-A type molecule (in words) [1]	Binding Experiment Data ([1]; 9 amino acid peptides)	also measured
GAPTLPPAW [compound 6]	experimentally confirmed to bind	6.1588	
FLKDHRISTF [compound 61]			Kd ([2]; 10 amino acid peptides): 2.95 µM
TLPPAWQPF [compound 23]			Kd ([2]; 9 amino acid peptides): 4.37 µM
FLKDHRISTF [compound 44]	experimentally confirmed to bind		Binding Experiment Data ([1]; 10 amino acid peptides): 7.008
AFLSVKKQF [compound 2]	experimentally confirmed to bind	7.7283	
SSGCAFLSV [compound 21]			Kd ([2]; 9 amino acid peptides): 5.07 µM
TLPPAWQPF [compound 1]	experimentally confirmed to bind	8.2648	
